Peptide text beside a SMILES is read from it.
Columns and labels:
[1] = molecular target: T1, Human Serum Albumin (HSA, fatty acid free) (Homo sapiens, UniProt P02768); experiment: SPR binding of CLP-A to immobilized HSA; settings: for Kd: Kd = 1/Ka, SPR; for Kd / Ka: 1X PBS pH 7.4, 5% DMSO; for Ka: SPR (BiacoreX, CM5 chip, HSA 9–11 kRU), CLP-A 50–200 μM injected in triplicate, dose-response fitted with rectangular hyperbola, global Rmax 2000, standard error of curve-fitting in brackets
T1 construct: purchased Sigma (Oakville, ON)
Description: Running buffer for all experiments was prepared by diluting a 10X phosphate-buffered saline (PBS) stock solution (100 mM phosphate buffer, 20.7 mM KCl, 1370 mM NaCl, pH 6.7) to a 1X PBS, pH 7.4 solution containing 5% DMSO. Running buffers were filtered and degassed daily before use.
Analyte solutions containing the CLP-A peptides were prepared by diluting the stock solution (10 mM in DMSO) into 1.05X PBS, giving a final 1X PBS, pH 7.4 buffer containing 5% DMSO (same as the running buffer).
All SPR measurements were performed at different temperatures using a BiacoreX instrument equipped with a research-grade CM5 carboxylated-dextran sensor chip (Biacore). The fluidic unit of the instrument was cleaned prior to experiments using the DESORB method (injections of 0.5% sodium dodecyl sulphate, followed by 50 mM glycine, pH 9.5) equipped in the instrument's software. On some occasions a “SUPER-CLEAN” method was also used (injections of 1% CH3COOH, 1 M NaHCO3, 10 mM HCl, and 6 M GndHCl).
The carboxylated-dextran sensor chips were preconditioned prior to HSA immobilization by priming the instrument 3 times with HBS-EP buffer, followed by 3 successive 1 min injections of 50 mM NaOH at 50 μL min^−1. HSA was covalently immobilized onto a CM5 sensor surface at 25°C using standard amine-coupling chemistry. Flow cell 1 (Fc1) and flow cell 2 (Fc2) were activated by a 7 min injection of a 1 : 1 mixture of 0.1 M NHS and 0.4 M EDC using a flow rate of 5 μL min^−1. Immediately after activation, HSA (30 μg mL^−1, 10 mM acetate buffer pH 5.3) was immobilized onto Fc2. A 7 min injection of 1 M EA (pH 8.5) was conducted over Fc1 and Fc2 to deactivate the surfaces. The final HSA concentration immobilized onto the chip was 9–11 kRU.
CLP-A solutions (50–200 μM) were injected in triplicate and flowed over reference and HSA surfaces for 2 min at a flow rate of […], followed by a dissociation phase of 3 min for all experimental temperatures. At the end of the CLP-A injection, the flowing solution was switched to the running buffer until the response returned to the original baseline. Instances where the baseline was not readily achieved, a short pulse of 50% (v/v) DMSO solution was injected at high flow rate to remove any remaining CLP-A. Data were collected at a rate of 5 Hz and processed using the BiaEvaluation V4.2 software. The equilibrium constant, Ka, was determined using the rectangular hyperbola equation [20]:
(1) Req=Rmax Ka[CLP-A]/1+Ka[CLP-A], where Req, Rmax, [CLP-A] are the measured response values, the binding site saturation value, and the concentration of CLP-A, respectively. Curve-fitting was done with Microcal Origin V7.1 using a global Rmax value of 2000.
CLP-A concentration was limited to below 200 μM due to the solubility of the peptide in the buffer. The affinity of interaction was estimated by first assuming that HSA-binding sites were equally available and second that only high affinity sites were occupied in the working concentration range [24]. The Kd and Ka values indicate that affinity increases as the temperature increased. […] To further elucidate the HSA/CLP-A interaction, thermodynamic parameters are extracted using the van't Hoff equation (2) ln Kd=ΔH/R(1/T)−ΔS/R, where R = 8.314 J mol^−1 K^−1. This yields ΔH and ΔS for the interaction to be 204 kJ mol^−1 and 746 J mol^−1 K^−1 respectively. The binding is overall endothermic. This indicates an association with the hydrophobic pockets of HSA and the opening of binding sites. Moreover, DMSO has been used to assist the solubility. Therefore, the entire solvation complex consisting of CLP-A, DMSO and H2O requires energy to expose the binding site. This energy plus the binding energy for interaction in the hydrophobic pockets of HSA result in an overall endothermic process. The large entropy of the endothermic process clearly indicate that binding is entropy-driven. This is due to contribution from breaking of the solvation complex and hydrophobic binding.

[2] = molecular target: T2, HSA (Homo sapiens, UniProt P02768); experiment: Far-UV circular dichroism, secondary structure of HSA upon CLP-A binding; settings: HSA 18 μM + CLP-A 50 μM, 10 mM PBS, 5% DMSO, pH 7.4, room temperature, far-UV CD, CDNN V2.1, 210–260 nm
T2 construct: purchased Sigma (Oakville, ON)
Description: CD measurements of HSA (18 μM), HSA/CLP-A (18 μM, 50 μM) in 10 mM PBS, 5% DMSO, pH = 7.4 buffer were made with a Pistar-180 CD spectrometer (Applied Photophysics Ltd., Leatherhead, UK) at room temperature. The far-UV region was scanned from 260–180 nm in 0.5 nm steps at a scan rate of 10 nm min^−1 and a bandwidth of 6 nm using a 0.010 cm optical pathlength quartz cuvette. The secondary structure was estimated using the neural network deconvolution software CDNN V2.1 [22]. The near-UV region was scanned from 350–250 nm in 0.5 nm steps at a scan rate of 10 nm min^−1, and a bandwidth of 2 nm using a 10 mm optical pathlength cuvette.
In order to assess if any conformational changes were present upon CLP-A complexation with HSA, we compared the far-UV and near-UV CD spectra of HSA and HSA/CLP-A in the running buffer used in the Biacore experiments shown in Figure 5. CD spectra taken in the far-UV spectral region provide insight to the secondary structure of a protein. […] This region of the spectra corresponds to signals from the phenylalanine, tyrosine, and tryptophan residues on the protein and it provides insight to changes in the tertiary structure of the protein.

T2 sequence (P02768 25-609): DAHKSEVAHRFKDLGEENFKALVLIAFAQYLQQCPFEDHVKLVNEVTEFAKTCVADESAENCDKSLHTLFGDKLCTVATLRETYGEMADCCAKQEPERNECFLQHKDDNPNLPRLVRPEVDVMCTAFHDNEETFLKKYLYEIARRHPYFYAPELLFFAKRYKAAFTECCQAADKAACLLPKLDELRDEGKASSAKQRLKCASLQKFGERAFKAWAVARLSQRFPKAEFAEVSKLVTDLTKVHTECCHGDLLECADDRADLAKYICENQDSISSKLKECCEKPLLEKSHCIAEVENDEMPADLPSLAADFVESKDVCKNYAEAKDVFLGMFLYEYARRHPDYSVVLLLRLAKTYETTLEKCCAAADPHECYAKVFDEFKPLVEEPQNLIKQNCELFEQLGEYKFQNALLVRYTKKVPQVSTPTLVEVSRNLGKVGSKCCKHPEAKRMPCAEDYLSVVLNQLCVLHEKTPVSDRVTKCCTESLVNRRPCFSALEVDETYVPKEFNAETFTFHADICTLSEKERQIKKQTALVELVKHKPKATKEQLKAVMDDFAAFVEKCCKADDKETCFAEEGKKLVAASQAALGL
T1 sequence (P02768 25-609): as above

- Kd ([1]; 20°C): 1320 µM
- Ka ([1]; 20°C): 757 (33) M^−1
- Kd ([1]; 25°C): 593 µM
- Ka ([1]; 25°C): 1687 (20) M^−1
- Kd ([1]; 30°C): 142 µM
- Ka ([1]; 30°C): 7056 (36) M^−1
- Kd ([1]; 37°C): 20 µM
- Ka ([1]; 37°C): 50032 (1792) M^−1
- recognition kinetics of binding to the HSA-binding site ([1]; SPR sensorgrams, 50–200 μM, 20–37°C, gradual increase of response to steady state during injection): very slow recognition kinetics
- Secondary structure of HSA/CLP-A: Parallel ([2]; HSA alone 6): 6%
- Secondary structure of HSA/CLP-A: Antiparallel ([2]; HSA alone 8): 9%
- Secondary structure of HSA/CLP-A: Beta-Turn ([2]; HSA alone 15): 16%
- Secondary structure of HSA/CLP-A: Rndm. Coil ([2]; HSA alone 27): 29%
- Secondary structure of HSA/CLP-A: Helix ([2]; HSA alone 46): 41%
SMILES: CC[C@H](C)[C@@H]1NC(=O)[C@H](CC(C)C)NC(=O)[C@H](Cc2ccccc2)NC(=O)[C@H](Cc2ccccc2)NC(=O)[C@@H]2CCCN2C(=O)[C@@H]2CCCN2C(=O)[C@H](C(C)C)NC(=O)[C@H](CC(C)C)NC(=O)[C@H]([C@@H](C)CC)NC1=O [CLP-A, Cyclolinopeptide A] (cyclo(FFLIILVPP))

Reference: publication PMC3062964, “Biomolecular Interaction Study of Cyclolinopeptide A with Human Serum Albumin” (Journal of Biomedicine and Biotechnology, 2011)
